These results are taken from patent US11202748B2, “Photoprotective compositions containing malassezia-derived compounds and/or chemical analogs thereof” (Versicolor Technologies, LLC, priority 2018, dated 2021).

Experiment [1] concerns arylhydrocarbon receptor (AhR). The settings on record: cited from earlier work.
Experiment [2] concerns B16 melanocytes. The settings on record: expected result.
Procedure: Plating media will include DMEM without L-glutamine, FBS, penicillin/streptomycin, and L-glutamine. Assay media will include DMEM without phenol red and L-glutamine, FBS, penicillin/streptomycin, L-glutamine, and aMSH. Other reagents will include Kojic Acid, DMSO, and MTT. Cells tested will be B16 cells (ATCC CRL-6475).
B16 Melanocytes are cultured until 70% confluent and harvested. Cells are seeded in 96-well plates at a density of 4000 cells/well and are allowed to attach overnight. The following day, test articles and controls are diluted in B16 Assay media. Overnight media is aspirated and 200 ul of test articles and controls are applied. Cells are incubated at 37° C. and 10% CO2 for 72 hours. Following 72-hour incubation, absorbance is read at 540 nm. Media is removed and replaced with 100 ul of plating media containing 1 mg/mL MTT and incubated for 2 hours at 37° C. and 10% CO2. MTT media is removed and replaced with 200 ul of 95% Ethanol/5% Isopropanol and allowed to shake for 15 minutes. MTT absorbance then is read at 570 nm.
B16 Melanocytes are cultured until 70% confluent and harvested. Cells are seeded in 96-well plates at a density of 4000 cells/well and are allowed to attach overnight. The following day, test articles, test compositions, and controls are diluted in B16 Assay media. […] Following 72-hour incubation, absorbance is read at 540 nm. […] MTT absorbance then is read at 570 nm.
The subject of experiment [3] is MeWo, WM115 and B16F1 cell lines. Particulars: expected result.
Procedure: The cell lines MeWo (ATCC® HTB-65™), WM115 (ATCC® CRL-1675) and B16F1 (ATCC® CRL-6323) are maintained in the following culture media: culture medium for MeWo and B16F1: DMEM supplemented with 10% FBS; culture medium for WM115: RPMI 1640 supplemented with 10% FBS.
Cells are harvested and the cell number determined using a Countess Cell Counter. The cells are diluted with culture medium to the desired density. The final cell density may be, for example, 4,000 cells/well for 6 hr and 24 hr treatment, and 2,000 cells/well for 48 hr and 72 hr treatment. For the Annexin V assay, 384-well clear-bottom plates (Corning 3712) are employed, whereas 384-well solid white-bottom plates (Corning 3570) are used for the Caspase-Glo assays. All plates are covered with a lid and placed at 37° C. and 5% CO2 overnight for cell attachment.
Test compounds are dissolved in DMSO to 30 mM stock. 10-fold dilutions are performed to generate 3 mM and 0.3 mM concentrations. […]
For the Annexin V assay, plates are removed from the incubator and culture media is removed. […] Plates are read using ImageXpress Nano.
For the Caspase-Glo assay, plates are removed from the incubator and equilibrated at room temperature for 15 minutes. […] Plates are incubated at room temperature for 15 minutes and read using EnSpire™ plate reader. Fold induction is calculated according to the following formula: Fold induction=LumSample/LumNC.
The conditions of experiment [4]: expected result.
Procedure: For the CellTiter-Glo assay, test compounds are prepared in 10 mM DMSO solution. Compounds are serially diluted into 12 concentrations. 40 uL of cells from a 100,000 cell/mL suspension are dispensed into each well of a 384-well plate (Corning 3570). Plates are incubated overnight at 37° C., 5% CO2, and 95% humidity. Test compounds are added, with DMSO as vehicle control. Plates are incubated at 37° C., 5% CO2, and 95% humidity for 6, 24, or 48 hours, and 40 uL of CellTiter-Glo reagent is added to the wells to assess cell viability.
For experiment [5], the target named is arylhydrocarbon receptor (AhR) (Homo sapiens, UniProt P35869). Particulars: expected result. The method, then: Cultivated cells are rinsed with 5 mL PBS. […] Trypsin is inactivated by adding excess serum-containing media.
Sequence of arylhydrocarbon receptor (AhR) (Homo sapiens, UniProt P35869) (P35869 11-848): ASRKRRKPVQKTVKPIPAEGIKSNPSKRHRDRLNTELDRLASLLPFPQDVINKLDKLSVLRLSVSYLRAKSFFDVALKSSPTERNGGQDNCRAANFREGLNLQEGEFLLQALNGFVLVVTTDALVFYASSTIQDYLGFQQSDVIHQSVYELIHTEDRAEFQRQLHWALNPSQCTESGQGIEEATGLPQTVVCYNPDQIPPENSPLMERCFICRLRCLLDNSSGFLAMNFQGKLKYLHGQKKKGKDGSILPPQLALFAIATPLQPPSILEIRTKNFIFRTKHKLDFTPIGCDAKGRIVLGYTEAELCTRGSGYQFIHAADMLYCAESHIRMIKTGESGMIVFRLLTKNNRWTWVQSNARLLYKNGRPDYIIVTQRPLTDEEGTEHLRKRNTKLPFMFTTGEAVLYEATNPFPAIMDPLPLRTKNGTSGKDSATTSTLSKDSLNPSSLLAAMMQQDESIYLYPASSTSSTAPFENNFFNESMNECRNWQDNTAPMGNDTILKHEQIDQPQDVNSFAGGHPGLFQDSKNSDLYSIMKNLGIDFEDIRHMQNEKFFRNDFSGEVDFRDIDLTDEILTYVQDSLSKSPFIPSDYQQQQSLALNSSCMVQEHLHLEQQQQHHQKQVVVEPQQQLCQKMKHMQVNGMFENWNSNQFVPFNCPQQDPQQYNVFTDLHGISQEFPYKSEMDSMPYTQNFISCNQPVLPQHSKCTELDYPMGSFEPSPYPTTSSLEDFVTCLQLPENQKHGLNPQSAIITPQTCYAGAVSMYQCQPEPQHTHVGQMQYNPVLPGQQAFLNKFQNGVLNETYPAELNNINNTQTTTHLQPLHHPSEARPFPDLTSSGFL
Cells are resuspended in seeding media at a proper density.
Compound solutions are transferred into the assay plate using Echo550. The plate is then placed back into the incubator for compound treatment.
Afterward, stock solutions of test compounds, test compositions, and omeprazole positive control are prepared. Compound and compositions solutions are transferred into the assay plate using Echo550. The plate is then placed back into the incubator for compound/composition treatment.

On to `O=Cc1c(Cc2c[nH]c3ccccc23)[nH]c2ccccc12` [Malassezin, 2-(1H-indol-3-ylmethyl)-1H-indole-3-carbaldehyde], for which the AhR agonist activity entry in experiment [1] is “known agonist”.
Regarding `O=C1Nc2ccccc2/C1=C1/Nc2ccccc2C1=O` [Indirubin], the melanogenesis inhibition entry in experiment [2] is given as “will inhibit melanogenesis”. Besides, the “cell death / apoptosis induction” value in experiment [3] is on record as “will induce cell death”. The “cell death (cell viability)” value in experiment [4] is given as “will induce cell death”. Further, the AhR agonist activity result in experiment [1] is reported as “known agonist”. In experiment [5], the AhR activity modulation entry is listed as “will modulate AhR activity”.
